Reference: ChEMBL document CHEMBL1201862, “PubChem BioAssay data set” (2004)
The source made the active and inactive calls.

Tests used:
[1] = target: T1, Short transient receptor potential channel 4 (Mus musculus, UniProt Q9QUQ5); test: block of DAMGO-driven TRPC4 calcium entry – cell-based, HEK293 TRPC4/mu-opioid, Fluo-4 calcium, dose response (AID 434942); type: functional;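 further: potency of inhibitors blocking the TRPC4 calcium response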
T1 sequence (Q9QUQ5 whole entry): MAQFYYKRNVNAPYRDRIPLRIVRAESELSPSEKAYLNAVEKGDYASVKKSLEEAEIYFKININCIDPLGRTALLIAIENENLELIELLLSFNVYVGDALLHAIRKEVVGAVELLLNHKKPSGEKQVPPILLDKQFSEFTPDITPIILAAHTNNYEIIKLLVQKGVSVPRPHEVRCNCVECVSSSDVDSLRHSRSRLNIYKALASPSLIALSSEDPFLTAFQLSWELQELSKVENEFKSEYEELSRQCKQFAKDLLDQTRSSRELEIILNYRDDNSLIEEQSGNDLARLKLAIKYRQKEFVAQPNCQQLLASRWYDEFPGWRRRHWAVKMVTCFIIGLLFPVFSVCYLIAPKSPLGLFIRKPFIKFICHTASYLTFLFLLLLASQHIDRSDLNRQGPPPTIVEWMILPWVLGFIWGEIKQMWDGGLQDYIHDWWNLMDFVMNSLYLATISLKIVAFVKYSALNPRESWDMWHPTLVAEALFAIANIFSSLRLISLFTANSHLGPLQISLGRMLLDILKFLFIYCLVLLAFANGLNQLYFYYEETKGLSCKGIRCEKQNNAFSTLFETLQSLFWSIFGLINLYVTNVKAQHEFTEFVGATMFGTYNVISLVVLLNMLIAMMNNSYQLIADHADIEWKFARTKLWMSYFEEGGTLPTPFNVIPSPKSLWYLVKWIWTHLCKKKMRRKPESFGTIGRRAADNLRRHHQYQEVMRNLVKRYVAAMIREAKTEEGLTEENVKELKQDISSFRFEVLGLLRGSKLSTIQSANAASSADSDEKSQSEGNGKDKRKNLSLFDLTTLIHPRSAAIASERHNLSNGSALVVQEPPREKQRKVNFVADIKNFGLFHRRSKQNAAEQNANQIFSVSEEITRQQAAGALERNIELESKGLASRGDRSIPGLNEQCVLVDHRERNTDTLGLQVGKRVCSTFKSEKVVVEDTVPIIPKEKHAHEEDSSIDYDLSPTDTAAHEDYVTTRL

[2] = target: Voltage-dependent T-type calcium channel subunit alpha-1H (Homo sapiens, UniProt O95180); type: functional;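 further: channel activity triggered by adding a high calcium stimulation buffer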
[3] = target: T2, High affinity choline transporter 1 (Homo sapiens, UniProt Q9GZV3); test: human choline transporter blockers, potency – cell-based, 5-point CRC, membrane potential dye, dose response (AID 504840); type: functional
T2 sequence (Q9GZV3 whole entry): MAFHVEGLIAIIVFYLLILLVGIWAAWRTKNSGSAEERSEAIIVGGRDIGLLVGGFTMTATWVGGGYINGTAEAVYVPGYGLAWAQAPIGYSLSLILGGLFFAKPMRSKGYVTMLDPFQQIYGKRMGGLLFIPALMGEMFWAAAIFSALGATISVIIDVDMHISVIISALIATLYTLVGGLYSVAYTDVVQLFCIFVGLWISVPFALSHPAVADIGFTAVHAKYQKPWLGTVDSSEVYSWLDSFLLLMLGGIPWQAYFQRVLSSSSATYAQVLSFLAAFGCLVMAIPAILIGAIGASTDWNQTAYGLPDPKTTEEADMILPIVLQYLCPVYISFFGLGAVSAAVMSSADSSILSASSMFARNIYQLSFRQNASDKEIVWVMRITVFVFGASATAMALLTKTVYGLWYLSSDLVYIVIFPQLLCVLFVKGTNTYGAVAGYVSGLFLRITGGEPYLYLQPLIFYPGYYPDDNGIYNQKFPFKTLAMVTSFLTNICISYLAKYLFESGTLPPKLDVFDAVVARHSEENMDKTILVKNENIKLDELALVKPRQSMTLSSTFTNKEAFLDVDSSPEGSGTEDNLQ

[4] = viability of uninfected HEp-2 cells – cell-based, HTS, cytotoxicity control for RSV inhibitor project, dose response (AID 2410); type: functional; conditions: human respiratory syncytial virus
[5] = target: T3, Microphthalmia-associated transcription factor (Homo sapiens, UniProt O75030); test: reducers of TRPM1 reporter luminescence, concentration series – cell-based, SK-MEL-5, cherry-picked, set 3, MITF inhibitor project, dose response (AID 493073); type: functional;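 further: SK-MEL-5 melanoma cells with luciferase driven by the MITF target TRPM1 promoter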
T3 sequence (O75030 whole entry): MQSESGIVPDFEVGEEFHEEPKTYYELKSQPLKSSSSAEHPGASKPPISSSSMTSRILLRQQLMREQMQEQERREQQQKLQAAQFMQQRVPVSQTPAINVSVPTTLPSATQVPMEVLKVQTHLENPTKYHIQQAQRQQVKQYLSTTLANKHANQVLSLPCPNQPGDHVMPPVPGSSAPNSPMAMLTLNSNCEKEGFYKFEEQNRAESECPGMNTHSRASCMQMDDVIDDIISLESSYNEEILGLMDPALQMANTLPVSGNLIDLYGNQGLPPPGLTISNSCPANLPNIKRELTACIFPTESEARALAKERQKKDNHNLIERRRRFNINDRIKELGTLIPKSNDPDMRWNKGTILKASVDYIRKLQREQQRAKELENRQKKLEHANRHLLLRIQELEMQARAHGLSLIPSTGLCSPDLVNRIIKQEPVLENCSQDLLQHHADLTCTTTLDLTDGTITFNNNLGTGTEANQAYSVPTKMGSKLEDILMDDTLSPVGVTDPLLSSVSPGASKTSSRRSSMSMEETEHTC

[6] = Luminescence Cell-Based Dose Confirmation HTS to Identify Activators of 5'UTR Stem-Loop Driven Alpha-Synuclein mRNA Translation in H4 Neuroglioblastoma Cells. [Related pubchem assays: 1829 (Project Summary), 1814 (Primary HTS)]; type: functional
[7] = Luminescence Cell-Based Dose Response HTS to Identify Activators of Luciferase Translation or Activity in H4 […] Cells. [Related pubchem assays: 1829 (Project Summary), 1814 (Primary HTS)]; type: functional
[8] = tested on: H4; test: Luminescence Cell-Based Dose Response HTS to Identify Activators of 5'UTR Stem-Loop Driven Prion Protein mRNA Translation in H4 Neuroglioblastoma Cells. [Related pubchem assays: 1829 (Project Summary), 1814 (Primary HTS)]; type: functional; conditions: Homo sapiens
[9] = target: Induced myeloid leukemia cell differentiation protein Mcl-1 (Homo sapiens, UniProt Q07820); type: functional
[10] = target: T4, Heat shock factor protein 1 (Mus musculus, UniProt P38532); test: decrease of HSF1-responsive luciferase luminescence – cell-based, NIH3T3, dose retest, confirmation (AID 2382); type: functional;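 further: NIH3T3 fibroblasts with HSF1-driven luciferase reporter stressed by proteasome inhibitor MG132; luminescence from HSF1-driven luciferase expression after 8 hours of MG132 stress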
T4 sequence (P38532 whole entry): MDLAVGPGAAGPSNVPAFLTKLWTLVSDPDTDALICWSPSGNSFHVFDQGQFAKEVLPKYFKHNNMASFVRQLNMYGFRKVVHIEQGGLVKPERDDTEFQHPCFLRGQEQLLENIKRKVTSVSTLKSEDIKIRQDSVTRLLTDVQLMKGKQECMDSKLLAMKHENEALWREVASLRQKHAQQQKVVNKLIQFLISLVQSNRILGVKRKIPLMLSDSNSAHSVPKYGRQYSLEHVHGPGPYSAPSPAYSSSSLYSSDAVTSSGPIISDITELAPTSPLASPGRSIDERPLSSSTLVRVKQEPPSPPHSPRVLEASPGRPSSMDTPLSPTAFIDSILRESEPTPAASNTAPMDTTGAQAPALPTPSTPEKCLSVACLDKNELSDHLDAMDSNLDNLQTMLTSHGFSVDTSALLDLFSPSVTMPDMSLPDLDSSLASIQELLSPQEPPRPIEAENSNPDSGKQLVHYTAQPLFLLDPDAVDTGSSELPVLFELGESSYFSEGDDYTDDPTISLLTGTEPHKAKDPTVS

[11] = tested on: Streptococcus sp. 'group A'; test: Streptococcus pyogenes SK(-)GAS viability under kanamycin – luminescence, BacTiterGlo, confirmation, counter-screen for streptokinase expression inhibitor project, dose response (AID 1900); type: functional, organism-based
[12] = target: T5, Streptokinase A (Streptococcus pyogenes serotype M1, UniProt P10520); test: viability-normalized secreted streptokinase activity reduction – plasminogen activation absorbance, OD405, dose response (AID 1914); type: functional, Streptococcus pyogenes M1 GAS;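 further: secreted streptokinase activity via plasminogen activation per viability signal from cell pellet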
T5 sequence (P10520 whole entry): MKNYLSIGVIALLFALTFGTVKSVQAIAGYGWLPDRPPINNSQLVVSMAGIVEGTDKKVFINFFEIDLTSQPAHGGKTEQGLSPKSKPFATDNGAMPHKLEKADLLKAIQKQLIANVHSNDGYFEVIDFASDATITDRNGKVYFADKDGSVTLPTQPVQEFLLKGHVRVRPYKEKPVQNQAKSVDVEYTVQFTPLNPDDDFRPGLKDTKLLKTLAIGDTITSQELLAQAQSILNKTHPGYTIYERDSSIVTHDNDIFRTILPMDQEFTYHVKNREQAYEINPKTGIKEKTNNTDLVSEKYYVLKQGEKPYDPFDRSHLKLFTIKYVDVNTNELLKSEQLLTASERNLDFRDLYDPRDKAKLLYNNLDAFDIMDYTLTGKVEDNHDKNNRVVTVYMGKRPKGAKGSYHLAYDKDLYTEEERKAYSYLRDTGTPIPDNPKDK

[13] = tested on: Streptococcus; test: GAS UMAA2166 growth inhibition – luminescence, BacTiterGlo, counter-screen for streptokinase expression inhibitor project, dose response (AID 1915); type: functional, organism-based;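 further: potency for reduction of bacterial viability or growth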
[14] = target: T6, DNA repair protein RAD52 homolog (Homo sapiens, UniProt P43351); type: functional, biochemical
T6 sequence (P43351 whole entry): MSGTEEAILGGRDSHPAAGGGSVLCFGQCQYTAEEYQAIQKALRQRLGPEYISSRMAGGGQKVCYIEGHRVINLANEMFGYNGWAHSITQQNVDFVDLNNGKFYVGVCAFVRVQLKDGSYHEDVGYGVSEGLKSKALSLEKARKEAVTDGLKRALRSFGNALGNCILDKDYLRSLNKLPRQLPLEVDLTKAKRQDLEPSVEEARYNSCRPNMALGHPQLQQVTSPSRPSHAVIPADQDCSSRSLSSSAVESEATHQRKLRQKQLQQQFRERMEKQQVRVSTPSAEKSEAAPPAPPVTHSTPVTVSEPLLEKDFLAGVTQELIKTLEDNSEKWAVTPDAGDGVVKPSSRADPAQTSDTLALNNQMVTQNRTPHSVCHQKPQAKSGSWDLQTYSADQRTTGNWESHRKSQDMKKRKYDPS

Sequence of Voltage-dependent T-type calcium channel subunit alpha-1H (O95180 whole entry): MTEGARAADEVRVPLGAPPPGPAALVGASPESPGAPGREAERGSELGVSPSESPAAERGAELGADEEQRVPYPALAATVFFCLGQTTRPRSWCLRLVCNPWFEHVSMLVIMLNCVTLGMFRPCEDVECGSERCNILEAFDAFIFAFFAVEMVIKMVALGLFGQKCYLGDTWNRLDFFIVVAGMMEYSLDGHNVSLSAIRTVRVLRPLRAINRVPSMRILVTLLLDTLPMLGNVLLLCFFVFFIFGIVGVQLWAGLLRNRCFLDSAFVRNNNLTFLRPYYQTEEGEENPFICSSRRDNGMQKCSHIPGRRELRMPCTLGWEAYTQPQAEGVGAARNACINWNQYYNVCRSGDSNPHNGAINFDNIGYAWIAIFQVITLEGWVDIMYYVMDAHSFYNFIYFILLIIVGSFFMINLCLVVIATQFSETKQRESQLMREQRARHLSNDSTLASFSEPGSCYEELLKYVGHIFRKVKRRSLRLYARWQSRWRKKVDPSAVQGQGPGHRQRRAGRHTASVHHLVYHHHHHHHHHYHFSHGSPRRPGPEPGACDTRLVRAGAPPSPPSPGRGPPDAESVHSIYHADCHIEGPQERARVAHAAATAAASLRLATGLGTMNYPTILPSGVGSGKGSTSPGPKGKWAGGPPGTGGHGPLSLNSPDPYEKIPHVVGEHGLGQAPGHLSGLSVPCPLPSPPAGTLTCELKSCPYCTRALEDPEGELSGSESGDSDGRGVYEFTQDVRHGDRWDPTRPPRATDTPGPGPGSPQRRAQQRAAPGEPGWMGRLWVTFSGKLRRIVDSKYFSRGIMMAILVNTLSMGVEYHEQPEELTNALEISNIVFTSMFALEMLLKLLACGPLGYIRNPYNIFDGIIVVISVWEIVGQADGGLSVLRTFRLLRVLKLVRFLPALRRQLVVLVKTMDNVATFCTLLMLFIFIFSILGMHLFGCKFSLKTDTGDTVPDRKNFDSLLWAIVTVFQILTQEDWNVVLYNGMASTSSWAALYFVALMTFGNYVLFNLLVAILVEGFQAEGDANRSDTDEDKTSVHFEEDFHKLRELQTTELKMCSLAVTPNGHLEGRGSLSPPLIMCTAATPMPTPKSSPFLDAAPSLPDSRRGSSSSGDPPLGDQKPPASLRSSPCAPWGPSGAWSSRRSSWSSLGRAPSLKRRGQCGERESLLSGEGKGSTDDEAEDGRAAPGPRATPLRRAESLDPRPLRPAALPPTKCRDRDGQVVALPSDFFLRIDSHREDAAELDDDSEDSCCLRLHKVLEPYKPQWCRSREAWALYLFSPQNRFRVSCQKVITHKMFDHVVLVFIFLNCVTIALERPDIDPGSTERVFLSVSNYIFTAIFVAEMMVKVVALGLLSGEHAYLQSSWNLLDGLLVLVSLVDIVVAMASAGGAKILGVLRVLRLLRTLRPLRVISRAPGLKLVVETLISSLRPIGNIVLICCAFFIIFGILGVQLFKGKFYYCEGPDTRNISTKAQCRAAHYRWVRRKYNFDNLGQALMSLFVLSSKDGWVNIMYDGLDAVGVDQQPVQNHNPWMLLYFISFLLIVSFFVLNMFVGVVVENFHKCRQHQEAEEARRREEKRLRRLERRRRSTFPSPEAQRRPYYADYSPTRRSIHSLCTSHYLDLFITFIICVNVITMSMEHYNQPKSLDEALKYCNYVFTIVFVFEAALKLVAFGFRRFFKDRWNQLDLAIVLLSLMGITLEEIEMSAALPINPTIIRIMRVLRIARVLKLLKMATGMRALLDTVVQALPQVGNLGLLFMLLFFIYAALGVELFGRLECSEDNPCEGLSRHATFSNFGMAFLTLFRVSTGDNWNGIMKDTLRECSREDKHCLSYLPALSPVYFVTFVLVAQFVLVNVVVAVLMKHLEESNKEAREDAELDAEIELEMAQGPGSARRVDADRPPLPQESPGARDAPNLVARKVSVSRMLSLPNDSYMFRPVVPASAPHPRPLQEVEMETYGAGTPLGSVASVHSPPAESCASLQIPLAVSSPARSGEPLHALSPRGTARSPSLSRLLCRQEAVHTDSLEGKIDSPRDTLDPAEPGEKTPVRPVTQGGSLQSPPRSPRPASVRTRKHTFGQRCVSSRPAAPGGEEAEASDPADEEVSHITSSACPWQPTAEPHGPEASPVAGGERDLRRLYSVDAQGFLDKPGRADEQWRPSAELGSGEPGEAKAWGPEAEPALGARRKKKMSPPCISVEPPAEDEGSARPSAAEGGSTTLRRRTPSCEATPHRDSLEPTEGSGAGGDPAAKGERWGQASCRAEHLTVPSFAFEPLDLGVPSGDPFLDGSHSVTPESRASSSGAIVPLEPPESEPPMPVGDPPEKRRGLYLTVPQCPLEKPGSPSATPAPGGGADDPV
Sequence of Induced myeloid leukemia cell differentiation protein Mcl-1 (Q07820 whole entry): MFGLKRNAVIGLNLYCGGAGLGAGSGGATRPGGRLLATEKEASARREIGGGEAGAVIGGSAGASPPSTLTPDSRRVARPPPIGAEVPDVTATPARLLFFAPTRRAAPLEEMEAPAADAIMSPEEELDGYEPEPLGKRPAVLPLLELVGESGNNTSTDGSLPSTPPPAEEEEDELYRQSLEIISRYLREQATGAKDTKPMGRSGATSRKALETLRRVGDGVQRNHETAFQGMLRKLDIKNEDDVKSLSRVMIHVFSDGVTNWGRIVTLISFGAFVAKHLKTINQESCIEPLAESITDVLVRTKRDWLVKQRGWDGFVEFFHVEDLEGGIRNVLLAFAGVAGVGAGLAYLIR

Structure (SMILES): N=c1n(CCO)c2ccccc2n1Cc1ccc(Cl)cc1
- EC50 [1]: 3.35 µM (active)

Structure (SMILES): CCn1nccc1C(=O)Nc1cc(Cl)cc(Cl)c1
- EC50 [2]: 7.54 µM (active)

Structure (SMILES): Cc1nn(C(C)C(=O)NC(C)CCc2ccccc2)c(=O)c2cc3occc3n12 (stereo not given)
- IC50 [3]: 17.4 µM (active)

Structure (SMILES): S=C(NCc1ccco1)N1CCN(Cc2ccc(Cl)cc2Cl)CC1
- EC50 [2]: 4.2 µM (active)

Structure (SMILES): COc1ccc(N2CCN(C(=O)CCc3nc(-c4ccc(C)cc4)no3)CC2)cc1
- EC50 [2]: 2.1 µM (active)

Structure (SMILES): Cc1cc(Nc2ccc(C)c(C)c2)c2ccccc2n1
- CC50 [4]: 26.1 µM (active)
- EC50 [1]: 2.11 µM (active)

Structure (SMILES): CC(C)n1c(O)c(C2c3cc(Cl)ccc3Oc3[nH]c(=O)n(C(C)C)c(=O)c32)c(=O)[nH]c1=O (stereo not given)
- AC50 [5]: 5.39 µM (active)

Structure (SMILES): N#C/C(=C(/O)c1ccc(-c2cccc([N+](=O)[O-])c2)o1)c1nc2ccccc2s1
- EC50 [6]: > 120 µM (not active)
- EC50 [7]: 9.39 µM (active)
- EC50 [8]: > 120 µM (not active)
- IC50 [9]: 5.38 µM (active)

Structure (SMILES): O=C(CSc1nc2ccccc2[nH]1)Nc1ccc(F)c(F)c1
- EC50 [10]: > 195 µM (not active)
- EC50 [2]: 6.59 µM (active)

Structure (SMILES): Cc1cc(C)cc(OC(C)C(=O)Nc2ccc(S(=O)(=O)Nc3cc(C)nc(C)n3)cc2)c1 (stereo not given)
- IC50 [3]: 13.2 µM (active)

Structure (SMILES): Cc1cccc(OCC(=O)Nc2ccccc2N2CCN(C(=O)C(C)C)CC2)c1C
- EC50 [2]: 2.13 µM (active)

Structure (SMILES): O=C(CSCc1cnn(-c2ccccc2)c1-n1cccc1)NCc1ccc2c(c1)OCO2
- EC50 [2]: 2.98 µM (active)

Structure (SMILES): CCCCCCCCCCCCOC(=O)C[N+](C)(C)C
- EC50 [11]: 3.32 µM (active)
- EC50 [12]: 20.7 µM (active)
- EC50 [13]: 10.6 µM (active)
- EC50 [1]: 2.99 µM (active)
- AC50 [14]: 26.4 µM (active)

Structure (SMILES): Cc1[nH]c2ccc(C(=O)OC(C)C(=O)N(C)c3ccccc3)cc2c1C (stereo not given)
- EC50 [1]: 0.749 µM (active)

Structure (SMILES): COc1cc(C(=O)N(CCc2ccccc2)C2=CC3CCC(C2)N3C)cc(OC)c1OC (stereo not given)
- EC50 [1]: 0.335 µM (active)

Structure (SMILES): Cc1ccccc1C(=O)c1cccn1CC(=O)NC(C)c1ccccc1 (stereo not given)
- IC50 [3]: 12.6 µM (active)
